In this data set the test system is trypsin. In words: Trypsin digestion test (enzymatic resistance, HPLC). The class given is in vitro ADME. The conditions noted are these: for Resistance to trypsin digestion (in words): after 30 minutes. How it is done: The compounds prepared were also tested for enzymatic resistance in the trypsin digestion test. […] Subsequently, a trypsin solution was added (100 μl; 0.02 mg/ml; Serva, 36 U/mg). […] An aliquot (500 μl) was withdrawn and diluted with 0.5 M acetic acid (1 ml), then lyophilized. The material obtained was analyzed by HPLC, using a Knauer system with an Eurospher 100 C18 (4.6×250 mm, 5 micron) column. The following solvent systems were used: A, 0.1% TFA in water; […]

Setting [1] is: isolated enzyme trypsin, trypsin, pH 8.5, 37° C., digestion time 30 min., read-out: % Unchanged compound.
Where [2] appears, read: isolated enzyme trypsin, trypsin, pH 8.5, 37° C., digestion time 60 min., read-out: % Unchanged compound.
The mark [3] stands for this setting: isolated enzyme trypsin, pH 8.5.

Molecules are shown by their SMILES. Like-named read-outs stand apart in the source and are kept apart here. Square brackets hold non-standard residues; d marks the D form. Peptide text beside a SMILES is read from it. * marks the point of attachment. Desaminotyrosyl = O=C(CCc1ccc(O)cc1)*; hArg = N=C(N)NCCCC[C@H](N)C(=O)O; Agb = N=C(N)NCC[C@H](N)C(=O)O; Agp = N=C(N)NC[C@H](N)C(=O)O; Nle = CCCC[C@H](N)C(=O)O

As to `CCCC[C@H](NC(=O)[C@@H](NC(=O)[C@H](CC(=O)O)NC(=O)[C@H](CCC(N)=O)NC(=O)[C@H](CC(C)C)NC(=O)[C@H](CC(C)C)NC(=O)[C@H](CCCCNC(=N)N)NC(=O)[C@H](CCCCNC(=N)N)NC(=O)[C@H](C)NC(=O)[C@H](CO)NC(=O)[C@H](CC(C)C)NC(=O)[C@H](CCC(N)=O)NC(=O)[C@H](C)NC(=O)[C@H](CC(C)C)NC(=O)[C@@H](NC(=O)[C@H](CCCCNC(=N)N)NC(=O)[C@H](CCNC(=N)N)NC(=O)[C@H](Cc1ccc(O)cc1)NC(=O)[C@H](CO)NC(=O)[C@H](CC(N)=O)NC(=O)[C@@H](NC(=O)[C@H](Cc1ccccc1)NC(=O)[C@@H](NC(=O)[C@H](C)NC(=O)[C@H](CC(=O)O)NC(=O)[C@H](C)NC(=O)CCc1ccc(O)cc1)[C@@H](C)CC)[C@@H](C)O)C(C)C)[C@@H](C)CC)C(=O)N[C@@H](CC(=O)O)C(=O)N[C@H](CCCNC(=N)N)C(N)=O` [Compound 5, Dat-Ala-Asp-Ala-Ile-Phe-Thr-Asn-Ser-Tyr^10-Gab-hArg-Val-Leu-Ala-Gln-Leu-Ser-Ala-hArg-hArg-Leu-Leu-Gln-Asp-Ile-Nle-Asp-D-Arg-NH2] (Desaminotyrosyl-ADAIFTNSY[Agb][hArg]VLAQLSA[hArg][hArg]LLQDI[Nle]D[dR]-NH2), the remaining at 0.5 h, 0.4 mg/ml under setting [1] turned out to be 80%. Further, the remaining at 1 h, 0.4 mg/ml under setting [2] was found to be 51%.

Consider `CCCC[C@H](NC(=O)[C@@H](NC(=O)[C@H](CC(=O)O)NC(=O)[C@H](CCC(N)=O)NC(=O)[C@H](CC(C)C)NC(=O)[C@H](CC(C)C)NC(=O)[C@H](CCCCNC(=N)N)NC(=O)[C@H](CCCCNC(=N)N)NC(=O)[C@H](C)NC(=O)[C@H](CO)NC(=O)[C@H](CC(C)C)NC(=O)[C@H](CCC(N)=O)NC(=O)[C@H](C)NC(=O)[C@H](CC(C)C)NC(=O)[C@@H](NC(=O)[C@H](CCNC(=N)N)NC(=O)[C@H](CCCCNC(=N)N)NC(=O)[C@H](Cc1ccc(O)cc1)NC(=O)[C@H](CO)NC(=O)[C@H](CC(N)=O)NC(=O)[C@@H](NC(=O)[C@H](Cc1ccccc1)NC(=O)[C@@H](NC(=O)[C@H](C)NC(=O)[C@H](CC(=O)O)NC(=O)[C@H](C)NC(=O)CCc1ccc(O)cc1)[C@@H](C)CC)[C@@H](C)O)C(C)C)[C@@H](C)CC)C(=O)N[C@@H](CC(=O)O)C(=O)N[C@H](CCCNC(=N)N)C(N)=O` [Compound 6, Dat-Ala-Asp-Ala-Ile-Phe-Thr-Asn-Ser-Tyr^10-hArg-Gab-Val-Leu-Ala-Gln-Leu-Ser-Ala-hArg-hArg-Leu-Leu-Gln-Asp-Ile-Nle-Asp-D-Arg-NH2] (Desaminotyrosyl-ADAIFTNSY[hArg][Agb]VLAQLSA[hArg][hArg]LLQDI[Nle]D[dR]-NH2), for which, under setting [3], the remaining at 0.5 h, 0.4 mg/ml stood at 85% and the remaining at 1 h, 0.4 mg/ml is 73%.

On to `CC[C@H](C)[C@H](NC(=O)[C@H](C)NC(=O)[C@H](CC(=O)O)NC(=O)[C@H](C)NC(=O)[C@@H](N)Cc1ccc(O)cc1)C(=O)N[C@@H](Cc1ccccc1)C(=O)N[C@H](C(=O)N[C@@H](CC(N)=O)C(=O)N[C@@H](CO)C(=O)N[C@@H](Cc1ccc(O)cc1)C(=O)N[C@@H](CCCNC(=N)N)C(=O)N[C@@H](CCCCN)C(=O)N[C@H](C(=O)N[C@@H](CC(C)C)C(=O)NCC(=O)N[C@@H](CCC(N)=O)C(=O)N[C@@H](CC(C)C)C(=O)N[C@@H](CO)C(=O)N[C@@H](C)C(=O)N[C@@H](CCCNC(=N)N)C(=O)N[C@@H](CCCCN)C(=O)N[C@@H](CC(C)C)C(=O)N[C@@H](CC(C)C)C(=O)N[C@@H](CCC(N)=O)C(=O)N[C@@H](CC(=O)O)C(=O)N[C@H](C(=O)N[C@@H](CCSC)C(=O)N[C@@H](CO)C(=O)N[C@@H](CCCNC(=N)N)C(N)=O)[C@@H](C)CC)C(C)C)[C@@H](C)O` [hGH-RH(1-29)-NH2, reference compound], for which the “Resistance to trypsin digestion (in words)” value is given as “complete digestion”. The remaining at 0.5 h, 0.4 mg/ml (trypsin solution (Serva, 36 U/mg), trypsin, pH 8.5, 37° C., digestion time 30 min., read-out: % Unchanged compound) came out at 0%. In addition, the remaining at 1 h, 0.4 mg/ml (trypsin solution (Serva, 36 U/mg), trypsin, pH 8.5, 37° C., digestion time 60 min., read-out: % Unchanged compound) came out at 0%.

For the compound `CCCC[C@H](NC(=O)[C@@H](NC(=O)[C@H](CC(=O)O)NC(=O)[C@H](CCC(N)=O)NC(=O)[C@H](CC(C)C)NC(=O)[C@H](CC(C)C)NC(=O)[C@H](CNC(=N)N)NC(=O)[C@H](CCCCNC(=N)N)NC(=O)[C@H](C)NC(=O)[C@H](CO)NC(=O)[C@H](CC(C)C)NC(=O)[C@H](CCC(N)=O)NC(=O)[C@H](C)NC(=O)[C@H](CC(C)C)NC(=O)[C@@H](NC(=O)[C@H](CNC(=N)N)NC(=O)[C@H](CNC(=N)N)NC(=O)[C@H](Cc1ccc(O)cc1)NC(=O)[C@H](CO)NC(=O)[C@H](CC(N)=O)NC(=O)[C@@H](NC(=O)[C@H](Cc1ccccc1)NC(=O)[C@@H](NC(=O)[C@H](C)NC(=O)[C@H](CC(=O)O)NC(=O)[C@H](C)NC(=O)CCc1ccc(O)cc1)[C@@H](C)CC)[C@@H](C)O)C(C)C)[C@@H](C)CC)C(=O)N[C@@H](CC(=O)O)C(=O)N[C@@H](CNC(=N)N)C(N)=O` [Compound 8, Dat-Ala-Asp-Ala-Ile-Phe-Thr-Asn-Ser-Tyr^10-Gap-Gap-Val-Leu-Ala-Gln-Leu-Ser-Ala-hArg-Gap-Leu-Leu-Gln-Asp-Ile-Nle-Asp-Gap-NH2] (Desaminotyrosyl-ADAIFTNSY[Agp][Agp]VLAQLSA[hArg][Agp]LLQDI[Nle]D[Agp]-NH2), the “Resistance to trypsin digestion (in words)” value is recorded as “unchanged”. The remaining at 0.5 h, 0.4 mg/ml under setting [1] was more than 99%. Also, the remaining at 1 h, 0.4 mg/ml under setting [2] was more than 99%.

As for `CCCC[C@H](NC(=O)[C@@H](NC(=O)[C@H](CC(=O)O)NC(=O)[C@H](CCC(N)=O)NC(=O)[C@H](CC(C)C)NC(=O)[C@H](CC(C)C)NC(=O)[C@H](CCNC(=N)N)NC(=O)[C@H](CCNC(=N)N)NC(=O)[C@H](C)NC(=O)[C@H](CO)NC(=O)[C@H](CC(C)C)NC(=O)[C@H](CCC(N)=O)NC(=O)[C@H](C)NC(=O)[C@H](CC(C)C)NC(=O)[C@@H](NC(=O)[C@H](CCNC(=N)N)NC(=O)[C@H](CCCCNC(=N)N)NC(=O)[C@H](Cc1ccc(O)cc1)NC(=O)[C@H](CO)NC(=O)[C@H](CC(N)=O)NC(=O)[C@@H](NC(=O)[C@H](Cc1ccccc1)NC(=O)[C@@H](NC(=O)[C@H](C)NC(=O)[C@H](CC(=O)O)NC(=O)[C@H](C)NC(=O)CCc1ccc(O)cc1)[C@@H](C)CC)[C@@H](C)O)C(C)C)[C@@H](C)CC)C(=O)N[C@@H](CC(=O)O)C(=O)N[C@@H](CCNC(=N)N)C(N)=O` [Compound 4, Dat-Ala-Asp-Ala-Ile-Phe-Thr-Asn-Ser-Tyr^10-hArg-Gab-Val-Leu-Ala-Gln-Leu-Ser-Ala-Gab-Gab-Leu-Leu-Gln-Asp-Ile-Nle-Asp-Gab-NH2] (Desaminotyrosyl-ADAIFTNSY[hArg][Agb]VLAQLSA[Agb][Agb]LLQDI[Nle]D[Agb]-NH2), under setting [3], the remaining at 0.5 h, 0.4 mg/ml is 82% and the remaining at 1 h, 0.4 mg/ml amounted to 67%.

For the compound `CCCC[C@H](NC(=O)[C@@H](NC(=O)[C@H](CC(=O)O)NC(=O)[C@H](CCC(N)=O)NC(=O)[C@H](CC(C)C)NC(=O)[C@H](CC(C)C)NC(=O)[C@H](CCNC(=N)N)NC(=O)[C@H](CCNC(=N)N)NC(=O)[C@H](C)NC(=O)[C@H](CO)NC(=O)[C@H](CC(C)C)NC(=O)[C@H](CCC(N)=O)NC(=O)[C@H](C)NC(=O)[C@H](CC(C)C)NC(=O)[C@@H](NC(=O)[C@H](CCNC(=N)N)NC(=O)[C@H](CCNC(=N)N)NC(=O)[C@H](Cc1ccc(O)cc1)NC(=O)[C@H](CO)NC(=O)[C@H](CC(N)=O)NC(=O)[C@@H](NC(=O)[C@H](Cc1ccccc1)NC(=O)[C@@H](NC(=O)[C@H](C)NC(=O)[C@H](CC(=O)O)NC(=O)[C@H](C)NC(=O)CCc1ccc(O)cc1)[C@@H](C)CC)[C@@H](C)O)C(C)C)[C@@H](C)CC)C(=O)N[C@@H](CC(=O)O)C(=O)N[C@@H](CCNC(=N)N)C(N)=O` [Compound 3, Dat-Ala-Asp-Ala-Ile-Phe-Thr-Asn-Ser-Tyr^10-Gab-Gab-Val-Leu-Ala-Gln-Leu-Ser-Ala-Gab-Gab-Leu-Leu-Gln-Asp-Ile-Nle-Asp-Gab-NH2] (Desaminotyrosyl-ADAIFTNSY[Agb][Agb]VLAQLSA[Agb][Agb]LLQDI[Nle]D[Agb]-NH2), under setting [3], the remaining at 0.5 h, 0.4 mg/ml is 86% and the remaining at 1 h, 0.4 mg/ml was 72%.

For `CCCC[C@H](NC(=O)[C@@H](NC(=O)[C@H](CC(=O)O)NC(=O)[C@H](CCC(N)=O)NC(=O)[C@H](CC(C)C)NC(=O)[C@H](CC(C)C)NC(=O)[C@H](CNC(=N)N)NC(=O)[C@H](CNC(=N)N)NC(=O)[C@H](C)NC(=O)[C@H](CO)NC(=O)[C@H](CC(C)C)NC(=O)[C@H](CCC(N)=O)NC(=O)[C@H](C)NC(=O)[C@H](CC(C)C)NC(=O)[C@@H](NC(=O)[C@H](CNC(=N)N)NC(=O)[C@H](CNC(=N)N)NC(=O)[C@H](Cc1ccc(O)cc1)NC(=O)[C@H](CO)NC(=O)[C@H](CC(N)=O)NC(=O)[C@@H](NC(=O)[C@H](Cc1ccccc1)NC(=O)[C@@H](NC(=O)[C@H](C)NC(=O)[C@H](CC(=O)O)NC(=O)[C@H](C)NC(=O)CCc1ccc(O)cc1)[C@@H](C)CC)[C@@H](C)O)C(C)C)[C@@H](C)CC)C(=O)N[C@@H](CC(=O)O)C(=O)N[C@@H](CNC(=N)N)C(N)=O` [Compound 7, Dat-Ala-Asp-Ala-Ile-Phe-Thr-Asn-Ser-Tyr^10-Gap-Gap-Val-Leu-Ala-Gln-Leu-Ser-Ala-Gap-Gap-Leu-Leu-Gln-Asp-Ile-Nle-Asp-Gap-NH2] (Desaminotyrosyl-ADAIFTNSY[Agp][Agp]VLAQLSA[Agp][Agp]LLQDI[Nle]D[Agp]-NH2), under setting [3], the remaining at 0.5 h, 0.4 mg/ml was 75% and the remaining at 1 h, 0.4 mg/ml was found to be 68%.

These data come from patent publication US7928063B2, “Analogs of human growth hormone-releasing hormone, their preparation and use” (Instytut Farmaceutyczny, priority 2001, dated 2011).
